The subject of test [1] is albendazole resistant Cooperia spp. Description: Trial 1: repeated oral dosing of albendazole in lambs, worm count (small intestine).
Another test relates to adult liver fluke. The conditions noted are these: oral, Coles & Stafford 2001; cited from earlier work.
A further test concerns resistant parasites. The conditions noted are these: Farm 4 from Anderson et al, 1991; cited from earlier work.
The test system of test [2] is albendazole resistant Ostertagia Circumcincta. The test is described as follows: Trial 1: repeated oral dosing of albendazole in lambs, worm count (abomasa).
Test [3] has as its system albendazole resistant Trichostrongylus axei. The description is as above.
Test [4] concerns resistant Haemonchus Contortus. The test is described as follows: Trial 3: oral albendazole vs prototype albendazole bolus in adult ewes, worm count (abomasa). The conditions noted are these: oral 5.0 mg/kg once.
The subject of test [5] is albendazole resistant Nematodirus spp. Description: Trial 1: repeated oral dosing of albendazole in lambs, worm count (small intestine).
Test [6] concerns resistant Trichostrongylus axei. The test is described as follows: Trial 3: oral albendazole vs prototype albendazole bolus in adult ewes, worm count (abomasa). The conditions noted are these: oral 5.0 mg/kg once.
The test system of the next test is immature flukes. The conditions noted are these: in vivo; cited from earlier work.
Test [7] has as its system resistant Ostertagia circumcincta. The test is described as follows: Trial 3: oral albendazole vs prototype albendazole bolus in adult ewes, worm count (abomasa). The conditions noted are these: oral 5.0 mg/kg once.
The subject of a further test is resistant Cooperia spp. Description: Trial 3: oral albendazole vs prototype albendazole bolus in adult ewes, worm count (small intestine). The conditions noted are these: oral 5.0 mg/kg once.
Test [8] relates to multiple drug resistant Ostertagia circumcincta. Description: Magnum combination bolus trial in sheep, efficacy based on worm counts. Type of test: in vivo. As to conditions: single standard oral doses. How it is done: (§1) This concept has again been tested for the present invention by constructing and testing for efficacy a Magnum bolus releasing 2 actives simultaneously. A prototype sheep bolus designed to release 5 mg/kg of albendazole and 0.18 mg/kg abamectin in a 50 kg sheep was tested against two species of multiple drench resistant parasites. Trial lambs ranged in weight from 48-55.5 kg.

The test system of test [9] is multiple drug resistant Trichostrongylus colubriformis. Described as above. The format is in vivo. As to conditions: single standard oral doses. How it is done:
as §1

In test [10] the test system is abamectin-resistant Trichostrongylus colubriformis. The test is described as follows: Trial 2: repeated oral dosing of abamectin in lambs, worm count. The format is in vivo.
Test [11] deals with abamectin-resistant Cooperia spp. The test is described as above. The format is in vivo.
The test system of test [12] is abamectin-resistant Ostertagia circumcincta. The test is described as above. The format is in vivo.
The test system of a further test is parasites of goats. The conditions noted are these: Pomroy et al, 1992; cited from earlier work.

`CCCSc1ccc2nc(NC(=O)OC)[nH]c2c1` [Alb, albendazole]: the “% reduction in worm count Cooperia spp.” value in test [1] (1.75 mg/kg for 7 days) is on record as 57.1%; in test [1] (2.5 mg/kg for 7 days) it was 67.5%; in [1] (3.75 mg/kg for 7 days) it was 83.3%; in test [1] (5 mg/kg for 7 days), 86.9%; in test [1] (5 mg/kg once), 36.9%; in the test on resistant Cooperia spp., 59.3%. Besides, the “level of efficacy against adult liver fluke” value with adult liver fluke was “variable and less than desirable”. Moreover, the Efficacy in the test with resistant parasites is given as 73%. Moreover, the “% reduction in worm count Ostertagia circumcincta” value is given as 74.9% in test [2] (1.75 mg/kg for 7 days); 57.0% in test [2] (2.5 mg/kg for 7 days); 70.9% in [2] (3.75 mg/kg for 7 days); 92.3% in test [2] (5 mg/kg for 7 days); 42.7% in test [2] (5 mg/kg once); 59.3% in test [7]. The “% reduction in worm count Trichostrongylus axei” value in test [3] (1.75 mg/kg for 7 days) is listed as 87.5%; in test [3] (2.5 mg/kg for 7 days), 90.2%; in test [3] (3.75 mg/kg for 7 days), 96.8%; in [3] (5 mg/kg for 7 days) it was 97.6%; in test [3] (5 mg/kg once), 82.9%; in test [6], 91.8%. For the same compound, the “% reduction in worm count Haemonchus Contortus” value in test [4] amounted to 91.4%. Also, the “% reduction in worm count Nematodirus spp.” value was 58.9% in [5] (1.75 mg/kg for 7 days); 69.0% in test [5] (2.5 mg/kg for 7 days); 88.1% in [5] (3.75 mg/kg for 7 days); 73.9% in [5] (5 mg/kg for 7 days); 71.2% in test [5] (5 mg/kg once). Moreover, the “efficacy against immature flukes” value in the test with immature flukes was “ineffective”.
As for `c1ccc([C@H]2CN3CCSC3=N2)cc1` [Levamisole], the Efficacy with resistant parasites is 88%.
As for `CO/N=C1\C[C@]2(C[C@@H]3C[C@@H](C/C=C(\C)C[C@@H](C)/C=C/C=C4\CO[C@@H]5[C@H](O)C(C)=C[C@@H](C(=O)O3)[C@]45O)O2)O[C@H](/C(C)=C/C(C)C)[C@H]1C` [Moxidectin], the “Efficacy based on worm counts Ostertagia circumcincta” value in test [8] was 59.9. Further, in test [9], the “Efficacy based on worm counts Trichostrongylus colubriformis” value was 90.6. Moreover, the “% reduction in worm count Trichostrongylus colubriformis” value in test [10] (0.2 mg/kg once) is recorded as 72.5%. Also, in test [11] (0.2 mg/kg once), the “% reduction in worm count Cooperia spp.” value was 99.1%. Besides, in [12] (0.2 mg/kg once), the “% reduction in worm count Ostertagia circumcincta” value is given as 76.3%.
For the compound `COC(=O)Nc1nc2ccc([S+]([O-])c3ccccc3)cc2[nH]1` (centres unmarked) [oxfendazole], the Efficacy in the test with parasites of goats is recorded as 82%.
Regarding abamectin, the “% reduction in worm count Trichostrongylus colubriformis” value in [10] (0.07 mg/kg for 7 days) came out at 47.3%; in test [10] (0.113 mg/kg for 7 days), 55.3%; in test [10] (0.18 mg/kg for 7 days), 77.1%; in test [10] (0.2 mg/kg once) it was 60.7%. Also, the “% reduction in worm count Cooperia spp.” value in [11] (0.07 mg/kg for 7 days) stood at 99.1%; in [11] (0.113 mg/kg for 7 days), 99.6%; in test [11] (0.18 mg/kg for 7 days) it was 100.0%; in test [11] (0.2 mg/kg once), 94.9%. The “% reduction in worm count Ostertagia circumcincta” value in [12] (0.07 mg/kg for 7 days) came out at 77.2%; in test [12] (0.113 mg/kg for 7 days) it was 89.3%; in test [12] (0.18 mg/kg for 7 days), 96.4%; in test [12] (0.2 mg/kg once), 45.0%.
Turning to ivermectin, the Efficacy in the test with parasites of goats is listed as 27%.
